Laboratory results: ChEMBL document CHEMBL1641547, “Biologically active constituents from the fruiting body of Taiwanofungus camphoratus” (Bioorg Med Chem, 2011)
≈ marks a conversion by molar mass, not a printed value.

Tests used:
Daoy = assay: Cytotoxicity against human DaOY cells after 3 days by MTT assay; assay type: functional; settings: 72 h, read-out: ED50 (the source's name)
HEp-2 = assay: Cytotoxicity against human Hep2 cells after 3 days by MTT assay; assay type: functional; settings: HEp-2, 72 h, read-out: ED50 (the source's name)
MCF7 = assay: Cytotoxicity against human MCF7 cells after 3 days by MTT assay; assay type: functional; settings: MCF7, 72 h, read-out: ED50 (the source's name)
HeLa = assay: Cytotoxicity against human HeLa cells after 3 days by MTT assay; assay type: functional; settings: 72 h, read-out: ED50 (the source's name)
[1] = Inhibition of NOX in fMLP-induced PMN cells assessed as ROS production
[2] = biological target: T1, Nitric oxide synthase, inducible (Mus musculus, UniProt P29477); assay: Inhibition of iNOS in mouse BV2 microglial cells assessed as NO production; assay type: cell-based
T1 sequence (P29477 whole entry): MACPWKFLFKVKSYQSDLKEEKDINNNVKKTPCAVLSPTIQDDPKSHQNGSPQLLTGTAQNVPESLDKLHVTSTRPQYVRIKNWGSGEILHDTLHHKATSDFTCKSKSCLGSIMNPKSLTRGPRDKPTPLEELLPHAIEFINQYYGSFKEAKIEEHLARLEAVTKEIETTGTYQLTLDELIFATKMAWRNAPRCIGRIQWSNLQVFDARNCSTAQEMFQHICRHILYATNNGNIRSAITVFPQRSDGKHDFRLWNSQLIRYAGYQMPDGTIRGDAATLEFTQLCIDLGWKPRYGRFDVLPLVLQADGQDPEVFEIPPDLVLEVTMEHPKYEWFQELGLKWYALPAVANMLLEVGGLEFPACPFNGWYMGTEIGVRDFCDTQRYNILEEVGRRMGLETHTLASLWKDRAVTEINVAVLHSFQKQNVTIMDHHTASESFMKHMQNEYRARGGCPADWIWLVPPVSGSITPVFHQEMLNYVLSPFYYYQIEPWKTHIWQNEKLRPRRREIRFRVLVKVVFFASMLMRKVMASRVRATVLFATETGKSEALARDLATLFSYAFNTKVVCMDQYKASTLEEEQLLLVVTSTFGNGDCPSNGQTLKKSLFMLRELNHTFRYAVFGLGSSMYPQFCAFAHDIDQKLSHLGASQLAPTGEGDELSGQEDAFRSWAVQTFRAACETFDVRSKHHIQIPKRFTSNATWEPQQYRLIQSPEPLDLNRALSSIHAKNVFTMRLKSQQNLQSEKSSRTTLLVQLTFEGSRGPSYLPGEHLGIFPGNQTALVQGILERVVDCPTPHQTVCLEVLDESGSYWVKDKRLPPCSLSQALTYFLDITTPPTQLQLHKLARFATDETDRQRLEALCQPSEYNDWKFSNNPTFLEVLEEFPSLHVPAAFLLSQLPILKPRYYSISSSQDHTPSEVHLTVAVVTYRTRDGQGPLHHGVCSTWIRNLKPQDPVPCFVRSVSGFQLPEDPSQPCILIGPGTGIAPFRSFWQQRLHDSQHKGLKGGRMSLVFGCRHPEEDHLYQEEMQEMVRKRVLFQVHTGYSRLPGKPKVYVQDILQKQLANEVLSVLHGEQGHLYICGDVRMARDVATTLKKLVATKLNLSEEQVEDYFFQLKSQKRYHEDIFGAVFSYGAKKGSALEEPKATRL

[3] = Inhibition of mouse NOX activity in NADPH-induced mouse BV2 microglial cells assessed as ROS production; settings: BV-2

SMILES	EC50 (Daoy) [µg/mL]	EC50 (HEp-2) [µg/mL]	EC50 (MCF7) [µg/mL]	EC50 (HeLa) [µg/mL]	IC50 [1] [µM]	IC50 [2] [µM]	IC50 [3] [µM]
COc1cc(C)c(OC)c2c1OCO2	> 20	> 20	> 20	> 20	19.9	–	–
COc1c(C)c(-c2c(C)c(OC)c3c(c2OC)OCO3)c(OC)c2c1OCO2	> 20	> 20	> 20	> 20	15.5	–	–
OC1O[C@@H](c2ccc3c(c2)OCO3)[C@@H]2CO[C@@H](c3ccc4c(c3)OCO4)[C@H]12 (stereo not given in full) [4-HYDROXYSESAMIN]	> 20	> 20	> 20	> 20	–	–	–
C=C(CC[C@@H](C)[C@H]1CC[C@H]2C3=C(C(=O)C[C@]12C)[C@@]1(C)CCC(=O)[C@@H](C)[C@@H]1CC3)C(C)C(=O)O (stereo not given in full) [ANTCIN A]	13.2 (≈ 29 µM)	> 20	13.3 (≈ 29.3 µM)	> 20	29.2	4.1	–
C=C(CC[C@@H](C)[C@H]1CC[C@H]2C3=C(C(=O)C[C@]12C)[C@@]1(C)CC[C@@H](O)[C@](C)(O)[C@@H]1C[C@@H]3O)C(C)C(=O)O (stereo not given in full) [ANTCIN K]	> 20	> 20	> 20	> 20	47.2	–	–
C=C(C)C#Cc1c(OC)cc(OC)c(OC)c1C [ANTROCAMPHIN A]	5.9 (≈ 24 µM)	10.5 (≈ 42.6 µM)	3.4 (≈ 13.8 µM)	6.9 (≈ 28 µM)	15.1	7.2	50.1
C=C(C)C#Cc1c(C)c(OC)c(OC)c2c1OCO2 [BENZOCAMPHORIN B]	–	–	–	–	14.4	–	–
C=C(CC[C@@H](C)[C@H]1CC[C@H]2C3=C(C(=O)C[C@]12C)[C@@]1(C)CC[C@@H](O)[C@@H](C)[C@@H]1C[C@@H]3O)C(C)C(=O)O (stereo not given in full) [CAMPHORATIN B]	–	–	–	–	32.1	15.7	–
C=C(CC[C@@H](C)[C@H]1CC[C@H]2C3=C(C(=O)C[C@]12C)[C@@]1(C)CCC(=O)[C@@H](C)[C@@H]1C[C@@H]3O)C(C)C(=O)O (stereo not given in full) [CAMPHORATIN D]	> 20	> 20	> 20	> 20	22.6	4.2	–
C=C(CC[C@@H](C)[C@H]1CC[C@H]2C3=C(C(=O)C[C@]12C)[C@@]1(C)CC[C@@H](O)[C@@H](C)[C@@H]1CC3=O)C(C)C(=O)OC (stereo not given in full) [CAMPHORATIN E]	5.2 (≈ 10.7 µM)	7 (≈ 14.4 µM)	6.6 (≈ 13.6 µM)	9 (≈ 18.6 µM)	–	–	–
C=C(CC[C@@H](C)[C@H]1CC[C@H]2C3=C(C(=O)C[C@]12C)[C@@]1(C)CCC(=O)[C@@H](C)[C@@H]1C[C@@H]3O)C(C)C(=O)OC (stereo not given in full) [CAMPHORATIN F]	4.4 (≈ 9.08 µM)	3 (≈ 6.19 µM)	7.9 (≈ 16.3 µM)	8.9 (≈ 18.4 µM)	11.2	2.5	–
C[C@H](/C=C/[C@H](C)[C@H](C)CO)[C@H]1CC[C@H]2C3=CC[C@H]4CC(=O)CC[C@]4(C)[C@H]3CC[C@]12C [CAMPHORATIN I]	–	–	–	–	17.5	12.7	–
C=C(CC[C@@H](C)[C@H]1CC[C@@H]2C3=C(C(=O)C[C@@]21C)[C@@]1(C)CCC(=O)[C@@H](C)[C@@H]1CC3)C(C)C(=O)OC (stereo not given in full) [CAMPHORATIN J]	> 20	> 20	8.7 (≈ 18.6 µM)	11.3 (≈ 24.1 µM)	15.8	1.6	–
CC(C)[C@@H](C)/C=C/[C@@H](C)[C@H]1CC[C@@H]2[C@]1(C)CC[C@H]1[C@]23C=C[C@]2(C[C@@H](O)CC[C@]12C)OO3 [ERGOSTEROL PEROXIDE]	–	–	–	–	20.3	–	–
CC(C)[C@@H](C)/C=C/[C@@H](C)[C@H]1CC[C@H]2C3=CC=C4C[C@@H](O)CC[C@]4(C)[C@H]3CC[C@]12C [ERGOSTEROL]	–	–	–	–	27.9	30.6	–
C=C(CC[C@@H](C)[C@H]1CC[C@H]2C3=C(C[C@H](O)[C@]12C)[C@@]1(C)CC[C@@H](O)[C@@H](C)[C@@H]1CC3=O)C(C)C(=O)OC (stereo not given in full) [METHYL ANTCINATE H]	> 20	> 20	> 20	> 20	18.1	2.5	–
C=C(CC[C@@H](C)[C@H]1CC[C@H]2C3=C(C(=O)C[C@]12C)[C@@]1(C)CCC(=O)[C@@H](C)[C@@H]1CC3)C(C)C(=O)OC (stereo not given in full) [METHYLANTCINATE A]	> 20	> 20	> 20	> 20	16.2	1.5	–
c1cc2c(cc1[C@H]1OC[C@H]3[C@@H]1CO[C@@H]3c1ccc3c(c1)OCO3)OCO2 [SESAMIN]	> 20	> 20	> 20	> 20	–	–	–
C=C(CC[C@@H](C)[C@H]1CC[C@H]2C3=C(C(=O)C[C@]12C)[C@@]1(C)CCC(=O)[C@@H](C)[C@@H]1CC3=O)C(C)C(=O)OC (stereo not given in full) [ZHANKUIC ACID A METHYL ESTER]	> 20	> 20	> 20	> 20	8.4	0.6	–
C=C(CC[C@@H](C)[C@H]1CC[C@H]2C3=C(C(=O)C[C@]12C)[C@@]1(C)CCC(=O)[C@@H](C)[C@@H]1CC3=O)C(C)C(=O)O (stereo not given in full) [ZHANKUIC ACID A]	> 20	16.6 (≈ 35.4 µM)	> 20	> 20	22.1	3.6	–
C=C(CC[C@@H](C)[C@H]1CC[C@H]2C3=C(C(=O)C[C@]12C)[C@@]1(C)CC[C@@H](O)[C@@H](C)[C@@H]1CC3=O)C(C)C(=O)O (stereo not given in full) [ZHANKUIC ACID B]	> 20	> 20	> 20	> 20	–	9.6	–
C=C(CC[C@@H](C)[C@H]1CC[C@H]2C3=C(C(=O)[C@H](O)[C@]12C)[C@@]1(C)CC[C@@H](O)[C@@H](C)[C@@H]1CC3=O)C(C)C(=O)O (stereo not given in full) [ZHANKUIC ACID C]	> 20	> 20	> 20	> 20	–	16.2	–
